# Measured values reported in patent US7038028B1, “Gene encoding promoter domain of tumor suppressor gene P51 and use thereof” (Toshiyuki Sakai, priority 1999, dated 2006).
# Entries after “also recorded” stand apart in the source; their conditions may differ.
# Experiments:
# Type in all cases: cell-based, human
# [1] = system: p51A mRNA; experiment: Northern blotting of the amount of p51 expressed in HCT116 cells after stimulation with drugs; conditions: 24 hours treatment, 1 μg/ml trichostatin A, Northern blotting of 20 μg RNA
# Protocol: A variety of stimulations including stimulation with a drug were applied to a cell line HCT116 derived from colon cancer to investigate changes in the amount expressed of p51 by Northern blotting. 200,000 cells of HCT116 cells were plated on a culture dish with a diameter of 60 mm, and cultured in the presence of 5% carbon dioxide at 37° C. for two days. The medium used was McCOY's 5A (manufactured by Nisseiken) to which fetal bovine serum (FBS) was added to a final concentration of 10% (referred to hereinafter as McCOY's 5A/10% FBS). Then it was treated with A23187 (0.1 μM, 1 μM), cisplatin (1 μg/ml, 10 μg/ml), CPTcAMP (0.1 μM, 1 μM), etoposide (10 μg/ml, 0.1 μg/ml), genistein (1 μM, 10 μM), ML-236B (1 μg/ml, 10 μg/ml), milurinone (1 μM, 10 μM), mitomycin C (5 μg/ml, 50 μg/ml), NKH477 (0.1 μM, 1 μM), okadaic acid (1 nM, 10 nM), radicicol (0.1 μg/ml, 1 μg/ml), staurosporin (1 nM, 10 nM), taxol (1 μg/ml, 10 μg/ml), trichostatin A (0.1 μg/ml, 1 μg/ml), radiation (50 J/m^2, 100 J/m^2), vitamin D3 (10 nM, 100 nM), vincristine (1 μg/ml, 10 μg/ml), and wortmannin (0.1 μM, […]), and further cultured in the presence of 5% carbon dioxide at 37° C. for 24 hours. Then, from the cells, RNA was prepared using ISOGEN (manufactured by Nippongene). […] Then, the membrane was analyzed on autoradiography.
# [2] = system: p51 promoter; experiment: Luciferase reporter assay in HCT116 cells transiently transfected with pGL2-neo/p51 promoter; conditions: HCT116, 1 μg/ml trichostatin A vs 0, 24 hours
# Protocol: Subsequently, the following experiment was carried out in order to perform functional analysis of the p51 promoter region. 200,000 cells of HCT116 were plated on a culture dish with a diameter of 60 mm. The medium used was McCOY's 5A/10% FBS. These were cultured in the presence of 5% carbon dioxide at 37° C. for 48 hours. The medium was replaced with McCOY's 5A containing no serum. Subsequently, 2 μg each of pGL2-neo/p51 promoter or pGL2-neo vector was introduced. The plasmid was introduced using the lipofectamine plus reagent (manufactured by GIBCO BRL). Thus, 125 μl of McCOY's 5A and 8 μl of the plus solution were added to the plasmid solution, stirred well, and then incubated at room temperature for 15 minutes. To this solution, 125 μl of McCOY's 5A and 12 μl of lipofectamine solution were added, stirred well, and then incubated at room temperature for further 15 minutes. This was added to the HCT116 cells incubated by the above procedure, gently mixed, and cultured in the presence of 5% carbon dioxide at 37° C. for three hours to introduce plasmid. Subsequently, the medium was replaced with McCOY's 5A/10% FBS, and cultured in the presence of 5% carbon dioxide at 37° C. for 21 hours. […] For these cells, the luciferase activity was determined to investigate promoter activity. […] The luciferase activity was determined according to the following method. […]
# [3] = system: p51 promoter; experiment: Luciferase assay in geneticin-selected HCT116/p51 promoter clones
# Protocol: The medium in the cell culture dish was removed, and 5 ml of the cell lysis reagent (25 mM Tris-HCl, pH 7.8, 2 mM dithiothreitol, 2 mM CDTA, 0.2% triton X-100, 10% glycerol) was added and incubated at room temperature for 15 minutes.
# As the plasmid-introduced cells, the HCT116 cell line was used. 500,000 cells of HCT116 cell were plated on a cuture dish with a diameter of 60 mm. The medium used was McCOY's 5A/10% FBS. These were cultured in the presence of 5% carbon dioxide at 37° C. for 48 hours. The medium was replaced with McCOY's 5A containing no serum. As the plasmid for introduction, two μg of pGL2-neo/p51 promoter was dissolved in 4 μl of the TE solution to prepare a plasmid solution. The plasmid was introduced using the lipofectamine plus reagent (manufactured by GIBCO BRL). Thus, 125 μl of McCOY's 5A and 8 μl of the plus solution were added to the plasmid solution, stirred well, and then incubated at room temperature for 15 minutes. To this solution, 125 μl of McCOY's 5A and 12 μl of the lipofectamine solution were added, stirred well, and then incubated at room temperature for further 15 minutes. This was added to the HCT116 cells cultured by the above procedure, gently mixed, and incubated in the presence of 5% carbon dioxide at 37° C. for three hours to permit the introduction of the plasmid. Subsequently, the medium was replaced with McCOY's 5A/10% FBS, and incubated in the presence of 5% carbon dioxide at 37° C. for 21 hours. Then, the cells were recovered from the culture dish with PBS containing 0.25% trypsin and 0.02% EDTA, and 1% amount thereof was plated onto a culture dish with a diameter of 100 mm. It was further cultured in McCOY's 5A/10% FBS medium in the presence of 5% carbon dioxide at 37° C. for further 72 hours, and then 1.2 mg/ml of geneticin (manufactured by Nacalai Tesque) was added as a selection drug. By replacing the medium every three days, and further culturing in the above condition for further two weeks, the cells into whose genes the plasmid gene was introduced, and became geneticin-resistant, were selected. Subsequently, 50 clones were isolated from the cell group that formed colonies on the dish, and were plated on a 24-well culture dish to continue being cultured.
# Thus, the reactivity of these clones to trichostatin A was investigated by the following procedure. 500,000 cells each of the cloned cells were plated on a cuture dish with a diameter of 60 mm. The medium used was McCOY's 5A/10% FBS. These were cultured in the presence of 5% carbon dioxide at 37° C. for 48 hours. Then, trichostatin A was added to the two groups of cells to a final concentration of 0 or 0.1 μg/ml, and cultured in the presence of 5% carbon dioxide at 37° C. for 24 hours. For these cells, their luciferase activity was determined to examine the effect on the p51 promoter activity. The luciferase activity was determined according to the above method.
smiles,measurement,setting,value
CC(/C=C/C(=O)NO)=C\[C@@H](C)C(=O)c1ccc(N(C)C)cc1 [trichostatin A],amount of p51A mRNA (specific band that reacts with p51A-derived cDNA),[1],transactivates p51; also recorded: specific band that reacts with p51A-derived cDNA was only observed
same,luciferase activity (fluorescence/chemiluminescence intensity) of pGL2-neo/p51 promoter-introduced cells,[2],further remarkably enhanced; also recorded: markedly enhanced
same,"measured values of luciferase activity, clone #5","[3]; HCT116/p51 promoter clone #5, with TsA 0.1 μg/ml, 24 hours (without TsA 3.9)",29.5
same,"measured values of luciferase activity, clone #9","[3]; HCT116/p51 promoter clone #9, with TsA 0.1 μg/ml, 24 hours (without TsA 1.0)",33.3
same,"measured values of luciferase activity, clone #17","[3]; HCT116/p51 promoter clone #17, with TsA 0.1 μg/ml, 24 hours (without TsA 17.0)",44.1
same,"measured values of luciferase activity, clone #18","[3]; HCT116/p51 promoter clone #18, with TsA 0.1 μg/ml, 24 hours (without TsA 6.8)",14.0
same,luciferase activity of cloned cells,"[3]; several clones, 0.1 μg/ml trichostatin A, 24 hours",significantly enhanced luciferase activity
